Patent EP0450097B1, “BENZOHETEROCYCLIC COMPOUNDS” (OTSUKA PHARMACEUTICAL CO., LTD., priority 1989, dated 1991)

Columns and labels:
V₂ receptor = biological target: T1, V₂ receptor (Rattus norvegicus, UniProt Q00788); assay: V₂ receptor binding assay ([³H]-Arg-vasopressin, rat kidney plasma membrane preparations); settings: 4°C for 3 hours
T1 construct: Using rat kidney plasma membrane preparations; from tissue; host or cells: rat kidney plasma membranes
How it was run: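 IC₅₀ reflects displacement of [³H]-vasopressin bound to rat kidney plasma membrane preparations, with excess vasopressin (10⁻⁶ M) defining nonspecific binding. Membrane-bound label separated by glass-filter (GF/F) filtration and measured by scintillation counting.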

SD rats = assay: Anti-antidiuretic activity (effect on endogenous ADH), amount of urine; format: in vivo; settings: for ED (3-fold urine volume): Rattus norvegicus, iv, read-out: ED₃
Excerpt: […] During this measurement, the rats are allowed to take water and feed freely.
The amount of urine of control rats (solvent-treated group) is regarded as 100 %, and the results are expressed as ED₃ value, which is the dose of the test compound to be required to excrete the urine by three times than that of the control rats.

V₁ receptor = biological target: T2, V₁ receptor (Rattus norvegicus, UniProt P30560); assay: V₁ receptor binding assay ([³H]-Arg-vasopressin, rat liver plasma membrane preparations); settings: 37°C for 10 minutes
T2 construct: Using rat liver plasma membrane preparations; from tissue; host or cells: rat liver plasma membranes
T2 sequence (P30560 whole entry): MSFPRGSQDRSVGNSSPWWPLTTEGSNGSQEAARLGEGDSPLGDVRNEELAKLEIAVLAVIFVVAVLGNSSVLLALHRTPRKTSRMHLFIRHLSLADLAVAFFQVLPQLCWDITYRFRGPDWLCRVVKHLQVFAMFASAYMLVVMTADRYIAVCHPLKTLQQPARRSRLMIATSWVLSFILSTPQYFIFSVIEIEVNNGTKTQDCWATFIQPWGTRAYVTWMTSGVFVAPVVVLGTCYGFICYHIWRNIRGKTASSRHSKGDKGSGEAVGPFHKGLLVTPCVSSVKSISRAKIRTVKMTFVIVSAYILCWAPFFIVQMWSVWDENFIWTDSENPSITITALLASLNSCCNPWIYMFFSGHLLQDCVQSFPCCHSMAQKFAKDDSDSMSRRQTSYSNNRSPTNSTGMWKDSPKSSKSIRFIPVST
Protocol: Using rat liver plasma membrane preparations prepared according to Ichihara's method [cf: Akira Ichihara, J. Bio. Chem., 258, 9283 (1983)], the plasma membrane (50000dpm, 2x10⁻¹⁰ M) of [³H]-Arg-vasopressin and a test compound (60 µg, 10⁻⁸-10⁻⁴ M) are incubated at 37°C for 10 minutes in 100 mM Tris-HCl buffer (pH: 8.0, 250 µl) containing 5 mM MgCl₂, 1 mM EDTA and 0.1 % BSA. After incubation, the mixture is filtered three times using the glass filter (GF/F) so as to separate the membrane preparation combined with vasopressin and then washed with the buffer (5 ml). This glass filter is taken out and mixed with liquid scintillation cocktail. The amount of [³H]-vasopressin combined with the membrane is measured by liquid scintillation counter and the rate of the inhibitory effect of the test compound is estimated according to the following equation. Rate of the inhibitory effect (%) = 100 -(C1 - B1)/(C0 - B1)X 100 [formula] C¹: The amount of [³H]-vasopressin combined with the membrane in the presence of the test compound (in prescribed amount). C⁰: The amount of [³H]-vasopressin combined with the membrane in the absence of the test compound. B¹: The amount of [³H]-vasopressin combined with the membrane in the presence of the excess amount of vasopressin (10⁻⁶ M).
The results are expressed as IC₅₀ values, which is the concentration of the test compound required to achieve the inhibitory effect in the rate of 50 %.

[1] = administered into a caudal vein, urine collected for 2 hours, dose to excrete the urine by three times that of control rats, solvent dimethylformamide

T1 sequence (Q00788 whole entry): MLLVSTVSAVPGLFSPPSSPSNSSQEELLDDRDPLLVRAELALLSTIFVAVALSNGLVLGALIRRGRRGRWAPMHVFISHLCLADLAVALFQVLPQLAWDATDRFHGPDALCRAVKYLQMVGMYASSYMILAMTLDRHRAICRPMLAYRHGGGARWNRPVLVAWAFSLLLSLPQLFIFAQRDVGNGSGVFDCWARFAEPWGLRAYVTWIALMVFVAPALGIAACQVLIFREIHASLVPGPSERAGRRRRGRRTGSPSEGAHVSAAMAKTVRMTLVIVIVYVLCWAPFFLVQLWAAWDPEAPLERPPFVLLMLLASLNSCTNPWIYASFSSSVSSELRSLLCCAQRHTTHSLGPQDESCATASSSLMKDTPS

Cc1cccc(C(=O)Nc2ccc(C(=O)N3CCCc4ccccc43)cc2)c1C [compound 6]
IC50 (V₂ receptor): 0.076 µM | ED (3-fold urine volume) (SD rats; [1]): 10 mg/kg

Cc1cccc(C(=O)Nc2ccc(C(=O)N3CCCCc4ccccc43)cc2)c1C [compound 33]
IC50 (V₁ receptor): 0.092 µM | IC50 (V₂ receptor): 0.007 µM | ED (3-fold urine volume) (SD rats; [1]): 1.9 mg/kg

O=C(Nc1ccc(C(=O)N2CCCC(O)c3ccccc32)cc1)c1cc(Cl)cc(Cl)c1 (stereo not shown) [compound 178]
IC50 (V₂ receptor): 0.012 µM | ED₃ (SD rats; [1]): 4.2 mg/kg

Cc1ccccc1C(=O)Nc1ccc(C(=O)N2CCCC(CN)c3ccccc32)cc1 (stereo not shown) [compound 244]
IC50 (V₁ receptor): 0.23 µM | IC50 (V₂ receptor): 0.018 µM

Cc1ccccc1C(=O)Nc1ccc(C(=O)N2CCCC(N(C)C)c3ccccc32)cc1 (stereo not shown) [compound 249]
ED₃ (SD rats; as E3, but physiological saline solution used as solvent instead of dimethylformamide): 0.4 ^*) mg/kg

Cc1ccccc1C(=O)Nc1ccc(C(=O)N2CCCC(CN=[N+]=[N-])c3ccccc32)cc1 (stereo not shown) [compound 250]
IC50 (V₁ receptor): 0.19 µM | IC50 (V₂ receptor): 0.12 µM

O=C(Nc1ccc(C(=O)N2CCCC(NCc3ccccc3)c3ccccc32)cc1)c1ccccc1Cl (stereo not shown) [compound 252]
IC50 (V₁ receptor): 0.36 µM | IC50 (V₂ receptor): 0.063 µM

CC(=O)NCC1CCCN(C(=O)c2ccc(NC(=O)c3ccccc3C)cc2)c2ccccc21 (stereo not shown) [compound 255]
IC50 (V₁ receptor): 0.046 µM | IC50 (V₂ receptor): 0.005 µM

Cc1ccccc1C(=O)Nc1ccc(C(=O)N2CCC(C)C(O)c3ccccc32)cc1 (stereo not shown) [compound 256]
IC50 (V₁ receptor): 0.049 µM | IC50 (V₂ receptor): 0.004 µM

Cc1ccccc1C(=O)Nc1ccc(C(=O)N2CCCC(N(C)CC(N)=O)c3ccccc32)cc1 (stereo not shown) [compound 266]
IC50 (V₁ receptor): 0.29 µM | IC50 (V₂ receptor): 0.013 µM

Cc1ccccc1C(=O)Nc1ccc(C(=O)N2CCCC(CNC=O)c3ccccc32)cc1 (stereo not shown) [compound 269]
IC50 (V₁ receptor): 0.48 µM | IC50 (V₂ receptor): 0.003 µM

Cc1ccccc1C(=O)Nc1ccc(C(=O)N2CCCC(NC3CCN(Cc4ccccc4)CC3)c3ccccc32)cc1 (stereo not shown) [compound 274]
IC50 (V₁ receptor): 0.11 µM | IC50 (V₂ receptor): 0.024 µM

Cc1ccccc1C(=O)Nc1ccc(C(=O)N2CCCC(OC(=O)CN(C)C)c3ccccc32)cc1 (stereo not shown) [compound 275]
IC50 (V₁ receptor): 0.18 µM | IC50 (V₂ receptor): 0.018 µM

Cc1ccccc1C(=O)Nc1ccc(C(=O)N2CCCC(OCC(=O)N3CCN(C)CC3)c3ccccc32)cc1 (stereo not shown) [compound 277]
IC50 (V₁ receptor): 0.23 µM | IC50 (V₂ receptor): 0.016 µM

Cc1ccccc1C(=O)Nc1ccc(C(=O)N2CCCC(OCC(=O)N3CCOCC3)c3ccccc32)cc1 (stereo not shown) [compound 278]
IC50 (V₁ receptor): 0.3 µM | IC50 (V₂ receptor): 0.013 µM

Cc1ccccc1C(=O)Nc1ccc(C(=O)N2CCCC(OCC(=O)N3CCSCC3)c3ccccc32)cc1 (stereo not shown) [compound 279]
IC50 (V₁ receptor): 0.15 µM | IC50 (V₂ receptor): 0.008 µM

Cc1ccccc1C(=O)Nc1ccc(C(=O)N2CCCC(NC(=O)Nc3ccccc3)c3ccccc32)cc1 (stereo not shown) [compound 280]
IC50 (V₁ receptor): 0.47 µM | IC50 (V₂ receptor): 0.045 µM

Cc1ccccc1C(=O)Nc1ccc(C(=O)N2CCCC(OCC(=O)N3CC[S+]([O-])CC3)c3ccccc32)cc1 (stereo not shown) [compound 281]
IC50 (V₁ receptor): 0.18 µM | IC50 (V₂ receptor): 0.011 µM

Cc1ccccc1C(=O)Nc1ccc(C(=O)N2CCCC(OCC(=O)N3CCCC3C(N)=O)c3ccccc32)cc1 (stereo not shown) [compound 284]
IC50 (V₁ receptor): 0.29 µM | IC50 (V₂ receptor): 0.019 µM

Cc1ccccc1C(=O)Nc1ccc(C(=O)N2CCCC(OCC(=O)NCC(N)=O)c3ccccc32)cc1 (stereo not shown) [compound 285]
IC50 (V₁ receptor): 0.18 µM | IC50 (V₂ receptor): 0.008 µM

Cc1ccccc1C(=O)Nc1ccc(C(=O)N2CCCC(OCC(=O)N3CCS(=O)(=O)CC3)c3ccccc32)cc1 (stereo not shown) [compound 286]
IC50 (V₁ receptor): 0.4 µM | IC50 (V₂ receptor): 0.019 µM

CNC1CCCN(C(=O)c2ccc(NC(=O)c3ccccc3C)cc2)c2ccc(Cl)cc21 (stereo not shown) [compound 287]
IC50 (V₁ receptor): 0.064 µM | IC50 (V₂ receptor): 0.007 µM

CC(=O)N1CCN(C(=O)COC2CCCN(C(=O)c3ccc(NC(=O)c4ccccc4C)cc3)c3ccccc32)CC1 (stereo not shown) [compound 288]
IC50 (V₁ receptor): 0.26 µM | IC50 (V₂ receptor): 0.015 µM

Cc1ccccc1C(=O)Nc1ccc(C(=O)N2CCCC(OCC(=O)NCc3ccncc3)c3ccccc32)cc1 (stereo not shown) [compound 290]
IC50 (V₁ receptor): 0.21 µM | IC50 (V₂ receptor): 0.021 µM

Cc1ccccc1C(=O)Nc1ccc(C(=O)N2CCCC(OCC(=O)N(C)CCO)c3ccccc32)cc1 (stereo not shown) [compound 293]
IC50 (V₁ receptor): 0.19 µM | IC50 (V₂ receptor): 0.065 µM

CN(C)c1ccccc1C(=O)Nc1ccc(C(=O)N2CCCC(N(C)C)c3ccccc32)cc1 (stereo not shown) [compound 298]
IC50 (V₁ receptor): 0.29 µM | IC50 (V₂ receptor): 0.1 µM

CNC1CCCN(C(=O)c2ccc(NC(=O)c3ccccc3Cl)cc2)c2ccc(Cl)cc21 (stereo not shown) [compound 302]
IC50 (V₁ receptor): 0.071 µM | IC50 (V₂ receptor): 0.011 µM

Cc1ccccc1C(=O)Nc1ccc(C(=O)N2CCCC(N(C)C)c3cc(Cl)ccc32)cc1 (stereo not shown) [compound 303]
IC50 (V₁ receptor): 0.19 µM | IC50 (V₂ receptor): 0.025 µM

CN(C)C1CCCN(C(=O)c2ccc(NC(=O)c3ccccc3Cl)cc2)c2ccc(Cl)cc21 (stereo not shown) [compound 304]
IC50 (V₁ receptor): 0.21 µM | IC50 (V₂ receptor): 0.024 µM

CCN(CC(=O)Nc1ccc(C(=O)N2CCCC(NC)c3cc(Cl)ccc32)cc1)c1ccccc1 (stereo not shown) [compound 307]
IC50 (V₁ receptor): 0.024 µM | IC50 (V₂ receptor): 0.01 µM

CCN(CC(=O)Nc1ccc(C(=O)N2CCCC(N(C)C)c3cc(Cl)ccc32)cc1)c1ccccc1 (stereo not shown) [compound 308]
IC50 (V₁ receptor): 0.11 µM | IC50 (V₂ receptor): 0.023 µM

CN(C)C1CCCN(C(=O)c2ccc(NC(=O)c3ccccc3Br)cc2)c2ccccc21 (stereo not shown) [compound 309]
IC50 (V₁ receptor): 0.43 µM | IC50 (V₂ receptor): 0.015 µM

Cc1ccccc1C(=O)Nc1ccc(C(=O)N2CCCC(NC3CC3)c3cc(Cl)ccc32)cc1 (stereo not shown) [compound 310]
IC50 (V₁ receptor): 0.065 µM | IC50 (V₂ receptor): 0.008 µM

O=C(Nc1ccc(C(=O)N2CCCC(NC3CC3)c3cc(Cl)ccc32)cc1)c1ccccc1Cl (stereo not shown) [compound 311]
IC50 (V₁ receptor): 0.078 µM | IC50 (V₂ receptor): 0.013 µM

CC(C)NCCCCOc1ccccc1C(=O)Nc1ccc(C(=O)N2CCCC(O)c3ccccc32)cc1 (stereo not shown) [compound 312]
IC50 (V₁ receptor): 0.056 µM | IC50 (V₂ receptor): 0.29 µM

CCN(CC(=O)Nc1ccc(C(=O)N2CCCC(OCC(=O)N(C)C)c3ccccc32)cc1)c1ccccc1 (stereo not shown) [compound 313]
IC50 (V₁ receptor): 0.032 µM | IC50 (V₂ receptor): 0.012 µM

CN(C)C1CCCN(C(=O)c2ccc(NC(=O)CNc3ccccc3Cl)cc2)c2ccccc21 (stereo not shown) [compound 315]
IC50 (V₁ receptor): 0.38 µM | IC50 (V₂ receptor): 0.025 µM

Cc1ccccc1NCC(=O)Nc1ccc(C(=O)N2CCCC(N(C)C)c3ccccc32)cc1 (stereo not shown) [compound 316]
IC50 (V₁ receptor): 0.47 µM | IC50 (V₂ receptor): 0.06 µM

CNC1CCCN(C(=O)c2ccc(NC(=O)c3ccccc3Cl)c(OC)c2)c2ccc(Cl)cc21 (stereo not shown) [compound 321]
IC50 (V₁ receptor): 0.059 µM | IC50 (V₂ receptor): 0.012 µM

COc1cc(C(=O)N2CCCC(NC3CC3)c3cc(Cl)ccc32)ccc1NC(=O)c1ccccc1Cl (stereo not shown) [compound 322]
IC50 (V₁ receptor): 0.044 µM | IC50 (V₂ receptor): 0.025 µM

CNC1CCCN(C(=O)c2ccc(NC(=O)c3ccccc3C)c(OC)c2)c2ccc(Cl)cc21 (stereo not shown) [compound 323]
IC50 (V₁ receptor): 0.064 µM | IC50 (V₂ receptor): 0.014 µM
